# Experiments:
# purple nutsedge = experiment: Test B pre/postemergence purple nutsedge; format: in vivo, Cyperus rotundus; settings: for Plant response rating, Nutsedge: scale of 0 to 10 where 0 is no effect and 10 is complete control
# How it was run: (§1)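 Test chemicals in a non-phytotoxic solvent mixture with surfactant were sprayed preemergence onto planted seeds and postemergence onto plants 2 to 18 cm tall (1- to 4-leaf stage). After twelve to sixteen days in a greenhouse, injury was visually rated against untreated controls from 0 (no effect) to 10 (complete control).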
# sugar beet = experiment: Test B pre/postemergence sugar beet; format: in vivo, Beta vulgaris; settings: for Plant response rating, Sugarbeets: scale of 0 to 10 where 0 is no effect and 10 is complete control
# How it was run: as §1
# cocklebur = experiment: Test B pre/postemergence cocklebur; format: in vivo, Xanthium strumarium
# How it was run: as §1
# smallflower flatsedge = experiment: Test B flood test smallflower flatsedge; format: in vivo, Cyperus difformis
# How it was run: (§2)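 Each value is a visual injury score relative to controls, with 10 meaning complete control and 0 no effect. Evaluation took place twelve to sixteen days after the 2-leaf-stage plants were treated and kept in the greenhouse.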
# wild oat = experiment: Test B pre/postemergence wild oat; format: in vivo, Avena fatua; settings: for Plant response rating, Wild oats: scale of 0 to 10 where 0 is no effect and 10 is complete control
# How it was run: as §1
# bamyardgrass = experiment: Test B flood test barnyardgrass; format: in vivo, Echinochloa crus-galli
# How it was run: as §2
# surinam grass = experiment: Test B pre/postemergence surinam grass; format: in vivo, Brachiaria decumbens
# How it was run: as §1
# soybean = experiment: Test B pre/postemergence soybean; format: in vivo, Glycine max; settings: for Plant response rating, Soybean: scale of 0 to 10 where 0 is no effect and 10 is complete control
# How it was run: as §1
# crabgrass = experiment: Test B pre/postemergence crabgrass; format: in vivo, Digitaria sanguinalis
# How it was run: as §1
# velvetleaf = experiment: Test B pre/postemergence velvetleaf; format: in vivo, Abutilon theophrasti; settings: for Plant response rating, Velvetleaf: Preemergence, scale of 0 to 10 where 0 is no effect and 10 is complete control
# How it was run: as §1
# [1] = Postemergence, Rate 250 g/ha, scale 0 to 10
# [2] = Preemergence, Rate 250 g/ha, scale 0 to 10, 0 is no effect, 10 is complete control
# [3] = Preemergence, Rate 500 g/ha, scale 0 to 10, 0 is no effect, 10 is complete control
# [4] = Rate 62 g/ha, Postemergence, scale 0 to 10 (0 no effect, 10 complete control)
# [5] = Rate 125 g/ha, Postemergence, scale 0 to 10, 0 is no effect, 10 is complete control
# [6] = Postemergence, Rate 500 g/ha, scale of 0 to 10 where 0 is no effect and 10 is complete control
# [7] = Preemergence, Rate 62 g/ha, scale of 0 to 10 where 0 is no effect and 10 is complete control
# [8] = Preemergence, Rate 125 g/ha, scale of 0 to 10 where 0 is no effect and 10 is complete control
# [9] = Rate 62 g/ha, flood test species, Pre-emergence, visual evaluation after twelve to sixteen days
# [10] = Rate 125 g/ha, under heading Pre-emergence, flood test species, visual evaluation after twelve to sixteen days
# [11] = Rate 250 g/ha, Pre-emergence (flood test species), scale 0 to 10, 0 is no effect, 10 is complete control
# [12] = Rate 500 g/ha, Pre-emergence, flood test species, scale 0 to 10 (0 no effect, 10 complete control)
smiles,measurement,setting,value
COC(CCl)n1c(=O)on(C(=O)N(c2ccc(Cl)cc2)C(C)C)c1=O (stereo not drawn) [Compound 458],Nutsedge plant response rating,purple nutsedge; [1],0
same,"Plant response rating, Nutsedge","purple nutsedge; Preemergence, Rate 62 g/ha",0
same,"Plant response rating, Nutsedge","purple nutsedge; Preemergence, Rate 125 g/ha",0
same,Nutsedge plant response rating,purple nutsedge; [2],0
same,Nutsedge plant response rating,purple nutsedge; [3],0
same,Nutsedge plant response rating,purple nutsedge; [4],0
same,Nutsedge plant response rating,purple nutsedge; [5],0
same,Sugarbeets plant response rating,sugar beet; [1],0
same,"Plant response rating, Sugarbeets","sugar beet; Preemergence, Rate 62 g/ha",0
same,"Plant response rating, Sugarbeets","sugar beet; Preemergence, Rate 125 g/ha",0
same,Sugarbeets plant response rating,sugar beet; [2],2
same,Sugarbeets plant response rating,sugar beet; [3],8
same,Sugarbeets plant response rating,sugar beet; [4],0
same,Sugarbeets plant response rating,sugar beet; [5],0
same,Cocklebur plant response rating,cocklebur; [1],0
same,Cocklebur plant response rating,cocklebur; [6],2
same,"Plant response rating, Cocklebur",cocklebur; [7],0
same,"Plant response rating, Cocklebur",cocklebur; [8],0
same,Cocklebur plant response rating,cocklebur; [2],0
same,Cocklebur plant response rating,cocklebur; [3],0
same,Cocklebur plant response rating,cocklebur; [4],0
same,Cocklebur plant response rating,cocklebur; [5],0
same,"Plant response rating, S. Flatsedge (0 to 10 scale, 0 is no effect, 10 is complete control)",smallflower flatsedge; [9],0
same,"S. Flatsedge plant response rating (0 to 10 scale, 0 is no effect, 10 is complete control)",smallflower flatsedge; [10],0
same,S. Flatsedge plant response rating,smallflower flatsedge; [11],0
same,S. Flatsedge plant response rating,smallflower flatsedge; [12],0
same,Wild oats plant response rating,wild oat; [1],2
same,"Plant response rating, Wild oats","wild oat; Preemergence, Rate 62 g/ha",0
same,"Plant response rating, Wild oats","wild oat; Preemergence, Rate 125 g/ha",2
same,Wild oats plant response rating,wild oat; [2],3
same,Wild oats plant response rating,wild oat; [3],10
same,Wild oats plant response rating,wild oat; [4],0
same,Wild oats plant response rating,wild oat; [5],0
same,"Plant response rating, Barnyardgrass (0 to 10 scale, 0 is no effect, 10 is complete control)",bamyardgrass; [9],0
same,"Barnyardgrass plant response rating (0 to 10 scale, 0 is no effect, 10 is complete control)",bamyardgrass; [10],0
same,Barnyardgrass plant response rating,bamyardgrass; [11],0
same,Barnyardgrass plant response rating,bamyardgrass; [12],0
same,B. signalgrass plant response rating,"surinam grass; Postemergence, Rate 250 g/ha, scale 0 to 10, 0 no effect, 10 complete control",0
same,B. signalgrass plant response rating,surinam grass; [6],3
same,"Plant response rating, B. signalgrass",surinam grass; [7],4
same,"Plant response rating, B. signalgrass",surinam grass; [8],4
same,B. signalgrass plant response rating,surinam grass; [2],4
same,B. signalgrass plant response rating,surinam grass; [3],4
same,B. signalgrass plant response rating,surinam grass; [4],0
same,B. signalgrass plant response rating,surinam grass; [5],0
same,Soybean plant response rating,soybean; [1],2
same,"Plant response rating, Soybean","soybean; Preemergence, Rate 62 g/ha",0
same,"Plant response rating, Soybean","soybean; Preemergence, Rate 125 g/ha",0
same,Soybean plant response rating,soybean; [2],0
same,Soybean plant response rating,soybean; [3],2
same,Soybean plant response rating,soybean; [4],0
same,Soybean plant response rating,soybean; [5],1
same,Crabgrass plant response rating,crabgrass; [1],8
same,Crabgrass plant response rating,crabgrass; [6],9
same,"Plant response rating, Crabgrass",crabgrass; [7],6
same,"Plant response rating, Crabgrass",crabgrass; [8],6
same,Crabgrass plant response rating,crabgrass; [2],9
same,Crabgrass plant response rating,crabgrass; [3],10
same,Crabgrass plant response rating,crabgrass; [4],2
same,Crabgrass plant response rating,crabgrass; [5],8
same,Velvetleaf plant response rating,velvetleaf; [1],0
same,"Plant response rating, Velvetleaf",velvetleaf; Rate 62 g/ha,0
same,"Plant response rating, Velvetleaf",velvetleaf; Rate 125 g/ha,0

# From US6737383B1, “Herbicidal oxadiazolidines” (priority 1999, dated 2004)
